The subject of experiment [1] is histamine release (CRA-1 anti human FcεRI stimulated human whole blood cells). Put plainly: Histamine release suppression test using human whole blood. The format is cell-based. Conditions: for histamine release suppression rate: N=3, mean ± SD. How it is done:
Human whole blood was collected from healthy volunteers and heparin was added thereto. A blood sample was prepared by adding 6 parts by weight of a histamine release buffer (Immunotech) to 1 part by weight of the whole blood to which the heparin had been added. 200 μl of the blood sample and 100 μl of a histamine release buffer comprising astragalin (33 μM), kaempferol (33 μM) or epinephrine (1638 μM or 4917 μM) were placed in an Eppendorf tube and allowed to stand for 30 minutes while cooling in ice (final concentration: 11 μM for astragalin, 11 μM for kaempferol, 546 μM or 1639 μM for epinephrine).
Centrifugal separation (3000 rpm, 5 minutes, 4° C.) was then carried out and the supernatant removed, and the resulting cells were again put into 300 μl of a histamine release buffer. 4.5 μl of 1 mg/ml CRA-1 (an anti human FcεRI receptor antibody, Cosmo Bio) was next added to the mixture (final CRA-1 concentration 15 μg/ml), and incubation was carried out for 30 minutes at 37° C. After centrifugation (3000 rpm, 10 minutes, 4° C.), the amount of histamine in the supernatant was measured using a histamine EIA kit (Immunotech). The histamine release suppression rate (%) was then calculated using undermentioned equation 3 from histamine amounts calculated from a calibration curve. The measurements were carried out with N=3, and the measurement values were represented by the mean and standard deviation.
[formula] A: Amount of histamine released from cells to which astragalin/kaempferol/epinephrine added (n mole) B: Amount of histamine released from untreated cells (n mole) C: Amount of histamine released from cells to which only CRA-1 added (n mole)

In experiment [2] the test system is IL-4 mRNA expression in human basophilic leukemia cell line (KU812). Put plainly: Expression of IL-4 mRNA using RT-PCR in KU812 cells. The format is cell-based. Conditions: A23187 ionophore 1 μM. As to the method:
A human basophilic leukemia cell line (KU812) was cultured at 37° C. with 5% CO2 in an RPMI 1640 culture medium (Gibco) containing 10% bovine fetal serum (treated at 56° C. for 30 minutes). The KU812 cells (5×10^5 cells/ml) were then stimulated using astragalin (0, 1.1, 3.3 or 11 μM) and an A23187 ionophore (1 μM). After washing, the total RNA was collected using RNAzol (Biotex, USA). 500 ng of the collected total RNA was mixed with an RT mixture (Perkin Elmer Cetus, USA), and then incubation was carried out for 5 minutes at 99° C. followed by 60 minutes at 37° C. After the RT products had been obtained, PCR amplification was carried out using an IL-4-specific primer and β-actin-specific primer. The products were subjected to migration in 2% agarose gel and stained with ethidium bromide, and then the amount of expression was evaluated.

The subject of experiment [3] is passive cutaneous anaphylaxis (auricula swelling). The experiment is described as follows: Suppression of passive cutaneous anaphylaxis (PCA) in mice. The conditions noted are these: astragalin 1.25 mg/kg oral. The format is in vivo, ddY male mice. How it is done: Ten 5-week-old ddY male mice were purchased from Japan SLC, and were reared at a room temperature of 23±3° C. and a humidity of 55±15%, with a 12 hour light-dark cycle (light period 7:00 to 19:00). The mice were kept 5 to a cage, and were fed a standard diet (Labo MR Stock, Nihon Nosan Kogyo K.K.) for a 7-day preliminary period, before being divided into a group to be administered astragalin and a control group each of 5 mice. A 0.025% (w/v) solution of astragalin in distilled water was forcedly orally administered (1.25 mg/5 ml/kg) to the astragalin-administered group using a metal stomach tube, while distilled water was forcedly orally administered (5 ml/kg) to the control group. One hour after the administration, 20 μl of an anti-DNP mouse IgE antibody (10 μg/ml) was intracutaneously injected into the right auricula and 20 μl of physiological saline into the left auricula of each mouse. 24 hours after the intracutaneous injections, 100 μl of DNP-BSA (1 mg/ml) was intravenously injected into the tail of each mouse. 15 minutes later, the thicknesses of the left and right auriculae of each mouse were measured three times using a thickness gauge (Ozaki Seisakusho K.K.). The auricula swelling rate was then calculated for each group using undermentioned equation 1, and the auricula swelling suppression rate was calculated using undermentioned equation 2. The measurement values were represented by the mean and standard deviation.

Experiment [4] relates to atopic dermatitis in NC/Nga mice. Put plainly: Intake test using NC/Nga mice: dermal symptoms of atopic dermatitis. The format is in vivo, NC/Nga male mice. Conditions: 0.0007% astragalin in diet ad libitum; end of experiment (13 weeks old); 5 mice; control 4 of 5 developed symptoms. As to the method: NC/Nga mice are conventional grade animals, and atopic dermatitis model mice that spontaneously develop atopic dermatitis. Moreover, the development of atopy is accompanied by a rise in serum IgE level.
(§1) Ten 4-week-old NC/Nga male mice were purchased from Japan SLC, and were reared at a room temperature of 23±3° C. and a humidity of 55±15%, with a 12 hour light-dark cycle (light period 7:00 to 19:00). The mice were kept 5 to a cage, and were fed a standard diet (Labo MR Stock, Nihon Nosan Kogyo K.K.) for a 7-day preliminary period, before being divided into a control group and a group to be administered astragalin, each of 5 mice. The mice were then allowed to eat the following diets ad libitum. Control group: A diet prepared by adding a corn starch (0.0007%, Oriental Enzyme K.K.) to MF powder (Oriental Enzyme K.K.) and then mixing in a mixer.
(§2) Astragalin-administered group: A diet prepared by adding astragalin (0.0007%) to the MF powder and then mixing in a mixer.
The following judgement criteria were used.
Slight inflammation or scratch wounds: 1
Medium degree inflammation, scratch wounds or bleeding: 2
Severe inflammation, scratch wounds or bleeding: 3
For each mouse, the judgement was carried out for each of the head, the shoulders and the back, and then the highest of the three scores was taken as the ‘maximum score’. […]

A further experiment has as its system serum IgE level. The experiment is described as follows: Intake test using NC/Nga mice: serum IgE level. Conditions: 0.0007% astragalin in diet; end of experiment (13 weeks); control 6,018 ng/ml; difference statistically significant. The format is in vivo, NC/Nga male mice. How it is done:
as §1, §2
The serum IgE level was measured at the start of the experiment and then at 2-week intervals until the end of the experiment by collecting blood from the orbit and then using a mouse IgE measurement kit ‘Yamasa’ EIA (lot 702). The serum IgE level measurement values were represented by the mean and standard deviation. The differences between the two groups were tested for statistical significance using t-tests, and a significance level of 5% or less was determined significant.

Another experiment deals with pollinosis symptoms. The experiment is described as follows: Pollinosis symptom scores in volunteers drinking astragalin solution. Format: in vivo, human volunteers. Conditions: for Impediment to daily life total point score / Nasal congestion total point score / Nasal discharge total point score / Sneezing total point score: mean of 13 volunteers. How it is done:
Thirteen volunteers who had previously experienced pollinosis were asked to drink 240 μg of astragalin (in the form of 1 ml of concentrated persimmon leaf extract) dissolved in a suitable amount (50 to 200 ml) of water or hot water twice a day (morning and evening) starting 14 days before the start of the pollen season and ending 14 days after the start of the pollen season.
Sneezing, nasal discharge, nasal congestion and extent of impediment to daily life were evaluated using a points system both during the 7 days immediately before stopping drinking the astragalin solution (‘while drinking’ below) and during the 7 days immediately after stopping drinking the astragalin solution (‘after stopping drinking’ below).
For sneezing, 1 point was recorded for each sneeze. For nasal discharge, 1 point was recorded each time the nose was blown. […] For extent of impediment to daily life, 3 points were recorded when one could not settle down to work at all, 2 points were recorded when there was some impediment to working, 1 point was recorded when there was little impediment to working, and 0 points were recorded when there was no impediment to working; points were recorded daily.
The total point scores for the 7-day ‘while drinking’ period and the 7-day ‘after stopping drinking’ period are shown in Table 1 below as mean values over the 13 volunteers.

Where [5] appears, read: after stopping drinking (7 days immediately after).
The mark [6] stands for this setting: while drinking (7 days before stopping), 240 μg astragalin twice a day, p 0.003.

On to `CNC[C@H](O)c1ccc(O)c(O)c1` [epinephrine], for which the “histamine release suppression rate” value is listed as 31±3% in experiment [1] (546 μM final concentration) and 55±4% in experiment [1] (1639 μM final concentration).

`O=c1c(O[C@@H]2O[C@H](CO)[C@@H](O)[C@H](O)[C@H]2O)c(-c2ccc(O)cc2)oc2cc(O)cc(O)c12` [astragalin, kaempferol-3-glucoside]: the “histamine release suppression rate” value in experiment [1] (11 μM final concentration) is listed as 50±7%. The “histamine release suppression action about the same as that of epinephrine of x times the concentration” value in experiment [1] (astragalin 11 μM versus epinephrine 1639 μM) is given as around 150 times. The IL-4 expression entry in experiment [2] (astragalin 3.3 μM or 11 μM) is reported as “particularly marked effects”; in experiment [2] (astragalin 1.1, 3.3 or 11 μM) it was “suppressed”. For the same compound, the right auricula thickness in experiment [3] (anti-DNP IgE-injected right auricula, 15 min after DNP-BSA i.v., mean ± SD) is listed as 0.286±0.017 mm. The “auricula swelling suppression rate” value in experiment [3] (versus distilled water control) is given as 33%. The same compound had an auricula swelling rate in experiment [3] (control 27.2±12.5%) of 18.2±5.0%. In experiment [3] (saline-injected left auricula, 15 min after DNP-BSA i.v., mean ± SD), this compound came in with a left auricula thickness of 0.242±0.013 mm. Further, the “development of atopic dermatitis symptoms” value in experiment [4] was “not one mouse had developed symptoms”. For the same compound, the “serum IgE level” value in the experiment with serum IgE level is reported as 1,225 ng/ml. The “Impediment to daily life total point score” value with pollinosis symptoms (setting [5]) is given as 10 ± 10 points; in the experiment with pollinosis symptoms (while drinking (7 days before stopping), 240 μg astragalin twice a day, p 0.005) it was 1 ± 2 points. Moreover, the “Nasal congestion total point score” value with pollinosis symptoms (setting [5]) turned out to be 13 ± 11 points; with pollinosis symptoms (setting [6]), 3 ± 3 points. Besides, the “Nasal discharge total point score” value in the experiment on pollinosis symptoms (setting [5]) worked out at 62 ± 83 points; in the experiment with pollinosis symptoms (setting [6]), 21 ± 26 points. In addition, the “Sneezing total point score” value in the experiment on pollinosis symptoms (setting [5]) worked out at 68 ± 79 points; with pollinosis symptoms (while drinking (7 days before stopping), 240 μg astragalin twice a day as concentrated persimmon leaf extract, p 0.001), 23 ± 21 points. The rough skin condition result in the experiment on pollinosis symptoms (two of the volunteers with rough skin before treatment, while drinking the astragalin solution) is recorded as “improved”.

On to `O=c1c(O)c(-c2ccc(O)cc2)oc2cc(O)cc(O)c12` [kaempferol], for which, in experiment [1] (11 μM final concentration), the “histamine release suppression rate” value worked out at 31±9%.
